Results as given in PMC7819857, “Identification of Inhibitors of Integrin Cytoplasmic Domain Interactions With Syk” (Frontiers in Immunology, 2021).

Experiments:
[1] = system: FcγRI signaling via Syk in THP-1 cells; assay: FcγRI-crosslinking-induced phosphorylation of Syk in THP-1 cells; format: cell-based, human; details: 100 µM loaded cells, anti-FcγRI mAb 276426
Description: (§1) Syk phosphorylation assays were performed by immobilizing vascular cell adhesion molecule-1 (VCAM)-1 (3 ug/ml), CS-1-BSA (10 ug/ml), or specific monoclonal antibodies (anti-FcγRI mAb 276426, anti-α4β1 mAb 19H8, anti-β2 mAb 76C3, anti-αvβ3 mAb LM609 all at 5 ug/ml) overnight at 4°C in Tris-HCl pH 7.5, 150 mM NaCl, in 6-well plates (non-tissue culture treated, Becton Dickenson, cat# BD351146). Plates were then blocked with BSA (2% w/v) for 1 h at room temperature. […] After electrophoresis, proteins were transferred to nitrocellulose for 1 h 100 V room temperature, blocked in 5% non-fat milk in TBS-T, and probed with the indicated primary antibody at 1:1,000 overnight at 4°C, followed by species-appropriate HRP secondary antibody (Southern Biotech) at 1:5,000 (30 min at room temperature), and detected using Pierce West Pico (Thermo Scientific cat# 34580). […]
(§2) Figure 6 Selective inhibition of integrin signaling by ceftazidime. […] Data are expressed as mean ± range from duplicate determinations. […] Kinase activity is expressed as percent of maximum signal. Data are expressed as mean ± SEM (n = 3). **p < 0.01 (D) Selective effects of ceftazidime on integrin signaling. […] Phosphorylation of Syk (left and right panel) and Pyk-2 (center panel) was analyzed by immunoprecipitation and western blot. […] Results are expressed as the mean ± SEM. […]

[2] = molecular target: T1, pITAM : Syk tandem SH2 domains (GST-Syk(6-370)) (Homo sapiens, UniProt P43405); assay: pITAM-Syk AlphaScreen; details: read-out: IC50, inhibition of pITAM-Syk binding
T1 construct: made in house; host or cells: E. coli BL21(DE3)
Description: Figure 6 Selective inhibition of integrin signaling by ceftazidime. (A) Schematic illustration of the pITAM-Syk AlphaScreen used to test antagonist selectivity. (B) Comparison between ceftazidime (Ctaz) and pITAM peptide inhibition of pITAM-Syk binding in the AlphaScreen assay described in (A). […] Data are expressed as mean ± range from duplicate determinations. One of four representative assays is shown. (C) Effect of ceftazidime on Syk kinase activity. Ceftazidime (Ctaz) or Syk inhibitor P505-15 was used at 100 uM. Kinase activity is expressed as percent of maximum signal. Data are expressed as mean ± SEM (n = 3). **p < 0.01 (D) Selective effects of ceftazidime on integrin signaling. […] Phosphorylation of Syk (left and right panel) and Pyk-2 (center panel) was analyzed by immunoprecipitation and western blot. […] Quantification is shown below (left panel, n = 5; center panel, n = 3; right panel, n = 3), normalized to phosphorylation in suspension. Results are expressed as the mean ± SEM. […] Expression of interleukin (IL)-1β and monocyte chemoattractant protein (MCP)-1 genes was examined by quantitative real-time polymerase chain reaction. Data are expressed as expression levels relative to control cells kept in suspension. […] P-values were calculated by the Student t test. […]

[3] = system: Pyk-2 phosphorylation in THP-1 cells; assay: Integrin α4β1-induced phosphorylation of Pyk-2 in THP-1 cells plated on CS-1; format: cell-based, human; details: 100 µM loaded by glycerol shock
Description: as §1, §2

IC50 [2]: > 300 µM
SMILES: CC(C)(O/N=C(\C(=O)N[C@@H]1C(=O)N2C(C(=O)[O-])=C(C[n+]3ccccc3)CS[C@H]12)c1csc(N)n1)C(=O)O [ceftazidime]
tyrosine phosphorylation of Syk on FcγRI crosslinking [1]: not inhibited
integrin α4β1 induced phosphorylation of Pyk-2 [3]: inhibited
